Structures can show the parent of a compound that is named as a salt.
Test system: Raf-1^gof intestinal tumors
Assay: Luciferase screen of FDA-approved (NCI) drugs in 96-well plates, flies with Raf-1^gof intestinal tumors; for Avg (3 + 6): test concentration or dose not given here; for Log2 (fold): test concentration or dose not given here
Assay type: in vivo, Drosophila
[1] = average of Day 3 and Day 6 fold
[2] = log2 of the Day 3 fold difference in luciferase relative to DMSO controls
[3] = luciferase activity relative to DMSO controls, single dose of drug for three days, 96-well plates
[4] = six-day protocol: single dose for three days, then another dose for three more days

C[C@]12CC[C@@H]3c4ccc(O)cc4C[C@@H](CCCCCCCCC[S+]([O-])CCCC(F)(F)C(F)(F)F)[C@H]3[C@@H]1CC[C@@H]2O (some centres unmarked) [Fulvestrant]
Avg (3 + 6) [1]: 1.172 fold | Log2 (fold) [2]: −0.221 | Day 3 Fold [3]: 0.858 fold | Day 6 Fold [4]: 1.486 fold

O=c1[nH]c(=O)n([C@H]2C[C@H](O)[C@@H](CO)O2)cc1F [Floxuridine]
Avg (3 + 6) [1]: 0.149 fold | Log2 (fold) [2]: −2.204 | Day 3 Fold [3]: 0.217 fold | Day 6 Fold [4]: 0.080 fold

O=P(O)(O)C(O)(Cn1ccnc1)P(=O)(O)O [Zolendronic acid]
Avg (3 + 6) [1]: 0.999 fold | Log2 (fold) [2]: −0.115 | Day 3 Fold [3]: 0.923 fold | Day 6 Fold [4]: 1.076 fold

Nc1ncn([C@H]2C[C@H](O)[C@@H](CO)O2)c(=O)n1 [Decitabine]
Avg (3 + 6) [1]: 0.569 fold | Log2 (fold) [2]: −1.077 | Day 3 Fold [3]: 0.474 fold | Day 6 Fold [4]: 0.663 fold

O=C1c2c(O)ccc(O)c2C(=O)c2c(NCCNCCO)ccc(NCCNCCO)c21 [Mitoxantrone]
Avg (3 + 6) [1]: 0.883 fold | Log2 (fold) [2]: −0.303 | Day 3 Fold [3]: 0.810 fold | Day 6 Fold [4]: 0.955 fold

Arsenic trioxide
Avg (3 + 6) [1]: 0.981 fold | Log2 (fold) [2]: −0.074 | Day 3 Fold [3]: 0.950 fold | Day 6 Fold [4]: 1.012 fold

CC(C)Cn1cnc2c(N)nc3ccccc3c21 [Imiquimod]
Avg (3 + 6) [1]: 0.888 fold | Log2 (fold) [2]: 0.086 | Day 3 Fold [3]: 1.061 fold | Day 6 Fold [4]: 0.715 fold

Cc1cn(-c2cc(NC(=O)c3ccc(C)c(Nc4nccc(-c5cccnc5)n4)c3)cc(C(F)(F)F)c2)cn1 [Nilotinib]
Avg (3 + 6) [1]: 0.804 fold | Log2 (fold) [2]: −0.615 | Day 3 Fold [3]: 0.653 fold | Day 6 Fold [4]: 0.956 fold

Cc1ccc(NC(=O)c2ccc(CN3CCN(C)CC3)cc2)cc1Nc1nccc(-c2cccnc2)n1 [Imatinib]
Avg (3 + 6) [1]: 0.674 fold | Log2 (fold) [2]: −0.558 | Day 3 Fold [3]: 0.679 fold | Day 6 Fold [4]: 0.670 fold

CN(N=O)C(=O)N[C@@H](C=O)[C@@H](O)[C@H](O)[C@H](O)CO [Streptozocin]
Avg (3 + 6) (in vivo): 0.943 fold | Day 3 Fold (in vivo): 1.030 fold | Day 6 Fold (in vivo): 0.856 fold | Log2 (fold) (in vivo): 0.043

CNNCc1ccc(C(=O)NC(C)C)cc1 [Procarbazine]
Avg (3 + 6) [1]: 1.119 fold | Log2 (fold) [2]: 0.470 | Day 3 Fold [3]: 1.385 fold | Day 6 Fold [4]: 0.854 fold

Estramustine disodium phosphate
Avg (3 + 6) (in vivo): 0.922 fold | Day 3 Fold (in vivo): 0.971 fold | Day 6 Fold (in vivo): 0.872 fold | Log2 (fold) (in vivo): −0.042

CCCCC(=O)OCC(=O)[C@]1(O)Cc2c(O)c3c(c(O)c2[C@@H](O[C@H]2C[C@H](NC(=O)C(F)(F)F)[C@H](O)[C@H](C)O2)C1)C(=O)c1c(OC)cccc1C3=O [Valrubicin]
Avg (3 + 6) [1]: 0.778 fold | Log2 (fold) [2]: −0.190 | Day 3 Fold [3]: 0.876 fold | Day 6 Fold [4]: 0.679 fold

COc1cccc2c1C(=O)c1c(O)c3c(c(O)c1C2=O)C[C@@](O)(C(=O)CO)C[C@@H]3O[C@H]1C[C@H](N)[C@H](O)[C@H](C)O1 [Doxorubicin HCl]
Avg (3 + 6) [1]: 1.084 fold | Log2 (fold) [2]: −0.090 | Day 3 Fold [3]: 0.939 fold | Day 6 Fold [4]: 1.228 fold

CC(=O)O[C@@]12CO[C@@H]1C[C@H](O)[C@@]1(C)C(=O)[C@H](O)C3=C(C)[C@@H](OC(=O)[C@H](O)[C@@H](NC(=O)OC(C)(C)C)c4ccccc4)C[C@@](O)([C@@H](OC(=O)c4ccccc4)[C@H]21)C3(C)C [Docetaxel]
Avg (3 + 6) [1]: 0.514 fold | Log2 (fold) [2]: −0.887 | Day 3 Fold [3]: 0.541 fold | Day 6 Fold [4]: 0.487 fold

O=P1(N(CCCl)CCCl)NCCCO1 (centres unmarked) [Cyclophosphamide]
Avg (3 + 6) (in vivo): 0.857 fold | Day 3 Fold (in vivo): 0.982 fold | Day 6 Fold (in vivo): 0.732 fold | Log2 (fold) (in vivo): −0.025

COc1cc2ncnc(Nc3ccc(F)c(Cl)c3)c2cc1OCCCN1CCOCC1 [Gefitinib]
Avg (3 + 6) (in vivo): 0.886 fold

CC(C)(C#N)c1cc(Cn2cncn2)cc(C(C)(C)C#N)c1 [Anastrozole]
Avg (3 + 6) [1]: 1.000 fold | Log2 (fold) [2]: −0.053 | Day 3 Fold [3]: 0.964 fold | Day 6 Fold [4]: 1.036 fold

COc1cc([C@@H]2c3cc4c(cc3[C@@H](O[C@@H]3O[C@@H]5CO[C@@H](c6cccs6)O[C@H]5[C@H](O)[C@H]3O)[C@H]3COC(=O)[C@H]23)OCO4)cc(OC)c1O [Teniposide]
Avg (3 + 6) [1]: 0.634 fold | Log2 (fold) [2]: −0.679 | Day 3 Fold [3]: 0.625 fold | Day 6 Fold [4]: 0.642 fold

CS(=O)(=O)OCCCCOS(C)(=O)=O [Busulfan]
Avg (3 + 6) [1]: 0.936 fold | Log2 (fold) [2]: 0.166 | Day 3 Fold [3]: 1.122 fold | Day 6 Fold [4]: 0.750 fold

CCN(CC)CCCC(C)Nc1c2ccc(Cl)cc2nc2ccc(OC)cc12 (centres unmarked) [Acrichine]
Avg (3 + 6) [1]: 1.046 fold | Log2 (fold) [2]: −0.212 | Day 3 Fold [3]: 0.863 fold | Day 6 Fold [4]: 1.229 fold

CC[C@]1(O)C[C@H]2CN(CCc3c([nH]c4ccccc34)[C@@](C(=O)OC)(c3cc4c(cc3OC)N(C=O)[C@H]3[C@@](O)(C(=O)OC)[C@H](OC(C)=O)[C@]5(CC)C=CCN6CC[C@]43[C@@H]65)C2)C1 [Vincristine sulfate]
Avg (3 + 6) [1]: 0.314 fold | Log2 (fold) [2]: −2.100 | Day 3 Fold [3]: 0.233 fold | Day 6 Fold [4]: 0.394 fold

C#Cc1cccc(Nc2ncnc3cc(OCCOC)c(OCCOC)cc23)c1 [Erlotinib HCl]
Avg (3 + 6) (in vivo): 0.986 fold | Day 3 Fold (in vivo): 1.030 fold | Day 6 Fold (in vivo): 0.942 fold | Log2 (fold) (in vivo): 0.042

COc1nc(N)nc2c1ncn2[C@@H]1O[C@H](CO)[C@@H](O)[C@@H]1O [Nelarabine]
Avg (3 + 6) [1]: 1.194 fold | Log2 (fold) [2]: 0.166 | Day 3 Fold [3]: 1.122 fold | Day 6 Fold [4]: 1.266 fold

NCC(=O)CCC(=O)O [Aminolevulinic acid]
Avg (3 + 6) [1]: 0.897 fold | Log2 (fold) [2]: −0.016 | Day 3 Fold [3]: 0.989 fold | Day 6 Fold [4]: 0.805 fold

Cc1ccc(-c2cc(C(F)(F)F)nn2-c2ccc(S(N)(=O)=O)cc2)cc1 [Celecoxib]
Avg (3 + 6) [1]: 0.755 fold | Log2 (fold) [2]: −0.565 | Day 3 Fold [3]: 0.676 fold | Day 6 Fold [4]: 0.834 fold

CCCCCOC(=O)Nc1nc(=O)n([C@@H]2O[C@H](C)[C@@H](O)[C@H]2O)cc1F [Capecitabine]
Avg (3 + 6) [1]: 1.017 fold | Log2 (fold) [2]: −0.078 | Day 3 Fold [3]: 0.947 fold | Day 6 Fold [4]: 1.087 fold

Nc1ccn([C@@H]2O[C@H](CO)[C@@H](O)C2(F)F)c(=O)n1 [Gemcitabine HCl]
Avg (3 + 6) [1]: 0.104 fold | Log2 (fold) [2]: −2.666 | Day 3 Fold [3]: 0.158 fold | Day 6 Fold [4]: 0.051 fold

O=NN(CCCl)C(=O)NC1CCCCC1 [Lomustine, CCNU, Lomustine]
Avg (3 + 6) [1]: 0.712 fold | Day 3 Fold (po, 72 h): 0.651 fold | Log2 (fold) (po, 72 h): −0.619

Cc1nc(Nc2ncc(C(=O)Nc3c(C)cccc3Cl)s2)cc(N2CCN(CCO)CC2)n1 [Dasatinib]
Avg (3 + 6) [1]: 1.085 fold | Log2 (fold) [2]: 0.521 | Day 3 Fold [3]: 1.435 fold | Day 6 Fold [4]: 0.736 fold
